The text below walks through data of US20230286970A1, “NOVEL OXADIAZOLE-BASED SELECTIVE HDAC6 INHIBITORS” (ITALFARMACO S.P.A., priority 2020, published 2023).

What is called IC50 is the concentration that inhibits the measured activity by half.

Structures are written as SMILES. Bounds are passed on as bounds.

The target of one series is recombinant human HDAC6 (Homo sapiens (Human), UniProt Q9UBN7). Nature of the series: Enzymatic screening, HDAC6 inhibition (fluorogenic FdL_G substrate). Type of series: biochemical. Summed up:
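Enzyme was preincubated with compound (8 doses, triplicate, 1% DMSO) in 25 mM Tris-HCl pH 8, 130 mM NaCl, 0.05% Tween-20, 10% glycerol, with BSA. A FLUOR DE LYS-Green substrate was then added, and fluorescence was read after developer plus 2 μM TSA.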

Another series deals with recombinant human HDAC1 (Homo sapiens (Human), UniProt Q13547). Kind of series: Enzymatic screening, HDAC1 inhibition (fluorogenic FdL_G substrate). Type of series: biochemical. Summed up: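 Recombinant human HDAC1 inhibition was measured fluorometrically using the FLUOR DE LYS-Green (FdL_G) substrate. Compounds at 8 doses (1% DMSO final) in Tris-HCl pH 8 buffer with NaCl, Tween-20 and glycerol were preincubated in triplicate with enzyme and 1 mg/mL BSA, then given substrate. Developer I plus 2 μM TSA was added, and fluorescence read after 25 minutes in the dark.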

The next series addresses HDAC2 (Homo sapiens (Human), UniProt Q92769). Kind of series: Enzymatic screening, HDAC2 inhibition. Type of series: biochemical. As to the method:
(§1) For each test compound, 100× concentrated DMSO solutions at 8 doses were prepared and then diluted in assay buffer (25 mM Tris-HCl, pH 8, 130 mM NaCl, 0.05% Tween-20, 10% Glycerol) to obtain 5× concentrated solutions in relation to the final concentrations (typical final concentration range—6.4-200000 nM or 0.18-50000 nM, final DMSO content—1%). Then 10 μL solution of each test compound concentration were placed on a 96-well plate in triplicate and 15 μL of 3.33× concentrated enzyme solution in the assay buffer containing 3.33× concentrated BSA (final BSA concentration—2 mg/mL for HDAC4, HDAC5 and HDAC9 or 1 mg/mL for other isoforms) and in the case of HDAC6-3.33× concentrated TCEP (final TCEP concentration—200 μM) were added to each well. After a period of preincubation (incubation times and temperatures vary for different isoforms and are shown in table 1) 25 μL of solution containing the substrate were added. As substrate, FLUOR DE LYS® deacetylase substrate (Enzo Life Sciences, cat: BML-KI104, FdL), FLUOR DE LYS®-Green substrate (Enzo Life Sciences, cat: BML-KI572, FdL_G) or Boc-Lys(Tfa)-AMC (Bachem, cat: 4060676.005, Tfal)—2× concentrated solution in assay buffer were used. Following a reaction period (reaction times and temperatures vary for different isoforms and are reported in Table 1), 50 μL of the development solution consisting of concentrate FLUOR DE LYS® developer I (Enzo Life Sciences, ca: BML-KI105), diluted 200 times in buffer (50 mM Tris-HCl, pH 8, 137 mM NaCl, 2.7 mM KCl, 1 mM MgCl2) plus 2 μM TSA was added and, after 25 minutes at room temperature in the dark, using the Victor 1420 Multilabel Counter Perkin Elmer Wallac instrument, the fluorescence reading was carried out.

The target of the next series is HDAC3 (Homo sapiens (Human), UniProt O15379). Kind of series: Enzymatic screening, HDAC3 inhibition. Format: biochemical. As to the method: as §1
Another series addresses HDAC4 (Homo sapiens (Human), UniProt P56524). Nature of the series: Enzymatic screening, HDAC4 inhibition. Type of series: biochemical. As to the method:
as §1

Another series addresses HDAC5 (Homo sapiens (Human), UniProt Q9UQL6). Nature of the series: Enzymatic screening, HDAC5 inhibition. Format: biochemical. As to the method: as §1
A further series concerns the target HDAC7 (Homo sapiens (Human), UniProt Q8WUI4). Kind of series: Enzymatic screening, HDAC7 inhibition. Type of series: biochemical. As to the method:
as §1

A further series concerns the target HDAC8 (Homo sapiens (Human), UniProt Q9BY41). Kind of series: Enzymatic screening, HDAC8 inhibition. Format: biochemical. As to the method:
as §1

For the next series, the target named is HDAC9 (Homo sapiens (Human), UniProt Q9UKV0). Nature of the series: Enzymatic screening, HDAC9 inhibition. Format: biochemical. As to the method: as §1
For another series, the target named is HDAC10 (Homo sapiens (Human), UniProt Q969S8). Nature of the series: Enzymatic screening, HDAC10 inhibition. Type of series: biochemical. As to the method: as §1
The target of the next series is HDAC11 (Homo sapiens (Human), UniProt Q96DB2). Kind of series: Enzymatic screening, HDAC11 inhibition. Format: biochemical. As to the method: as §1
The test system of series [1] is α-tubulin acetylation in 697 cell line. Kind of series: In vitro α-tubulin acetylation in 697 cell line (ELISA). Type of series: cell-based. The settings on record: 16 hours, read-out: fold increase @ 1 uM TubAc (ratio of acetylated tubulin and total tubulin towards control). An outline of the steps: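 B 697 cells in RPMI 10% FCS were treated for 16 h at 37 °C with compound at 1000, 333, 111 or 37 nM. Lysate (0.3 μg protein) was coated and probed by ELISA for acetylated and total α-tubulin, read at 450 nm. The acetylated/total ratio is given as fold over untreated control.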
In general terms: An ELISA detects its analyte on a solid surface through an enzyme-linked reagent.

Another series is described as follows: Stability in rat plasma. Conditions: after 4 hours, 37° C.
A short description of series [2]: Stability in human plasma. The settings on record: after 4 hours, 37° C.
The nature of series [3]: Stability to Phase I metabolism in rat S9 liver fraction. The settings on record: after 90 minutes, 37° C.
Experimental: Test compounds were incubated in rat and human liver S9 fraction at 37° C. up to 90 minutes in order to evaluate their stability to Phase I metabolism by hepatic enzymes. Each test compound was incubated at μM concentration (50 μM when the samples were analysed by UV/HPLC, 1 or 2 μM when the samples were analysed by LC-MS/MS) with S9 fraction (protein content 2 mg/m L) in 100 mM phosphate buffer (pH 7.4), 3.3 mM MgCl2 and 1.3 mM NADPH for 0, 10, 30, 60 and 90 minutes at 37° C. in a thermostated oscillating bath. The reaction was stopped placing samples on ice bath and adding acidified acetonitrile. After centrifugation (10 minutes at 14000 rpm) an aliquot of the supernatant was diluted with water, filtered with 0.45 μm regenerated cellulose syringe filters and injected in HPLC-UV or in LC-MS/MS. The percentage of the remaining amount at the various incubation times with respect to the initial amount were calculated.
Series [4] can be described thus: Stability to Phase I metabolism in human S9 liver fraction. The settings on record: after 90 minutes, 37° C.

Chain of HDAC11 (Q96DB2 whole entry): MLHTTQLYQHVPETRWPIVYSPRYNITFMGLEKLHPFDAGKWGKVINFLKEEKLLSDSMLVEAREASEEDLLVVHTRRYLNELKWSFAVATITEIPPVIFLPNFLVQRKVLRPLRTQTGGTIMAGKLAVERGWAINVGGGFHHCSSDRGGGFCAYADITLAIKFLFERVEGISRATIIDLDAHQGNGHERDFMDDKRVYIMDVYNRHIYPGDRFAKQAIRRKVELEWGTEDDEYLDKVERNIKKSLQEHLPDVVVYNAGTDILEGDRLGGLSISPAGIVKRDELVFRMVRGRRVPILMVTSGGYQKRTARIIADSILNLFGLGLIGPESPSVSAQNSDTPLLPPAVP
Chain of HDAC4 (P56524 whole entry): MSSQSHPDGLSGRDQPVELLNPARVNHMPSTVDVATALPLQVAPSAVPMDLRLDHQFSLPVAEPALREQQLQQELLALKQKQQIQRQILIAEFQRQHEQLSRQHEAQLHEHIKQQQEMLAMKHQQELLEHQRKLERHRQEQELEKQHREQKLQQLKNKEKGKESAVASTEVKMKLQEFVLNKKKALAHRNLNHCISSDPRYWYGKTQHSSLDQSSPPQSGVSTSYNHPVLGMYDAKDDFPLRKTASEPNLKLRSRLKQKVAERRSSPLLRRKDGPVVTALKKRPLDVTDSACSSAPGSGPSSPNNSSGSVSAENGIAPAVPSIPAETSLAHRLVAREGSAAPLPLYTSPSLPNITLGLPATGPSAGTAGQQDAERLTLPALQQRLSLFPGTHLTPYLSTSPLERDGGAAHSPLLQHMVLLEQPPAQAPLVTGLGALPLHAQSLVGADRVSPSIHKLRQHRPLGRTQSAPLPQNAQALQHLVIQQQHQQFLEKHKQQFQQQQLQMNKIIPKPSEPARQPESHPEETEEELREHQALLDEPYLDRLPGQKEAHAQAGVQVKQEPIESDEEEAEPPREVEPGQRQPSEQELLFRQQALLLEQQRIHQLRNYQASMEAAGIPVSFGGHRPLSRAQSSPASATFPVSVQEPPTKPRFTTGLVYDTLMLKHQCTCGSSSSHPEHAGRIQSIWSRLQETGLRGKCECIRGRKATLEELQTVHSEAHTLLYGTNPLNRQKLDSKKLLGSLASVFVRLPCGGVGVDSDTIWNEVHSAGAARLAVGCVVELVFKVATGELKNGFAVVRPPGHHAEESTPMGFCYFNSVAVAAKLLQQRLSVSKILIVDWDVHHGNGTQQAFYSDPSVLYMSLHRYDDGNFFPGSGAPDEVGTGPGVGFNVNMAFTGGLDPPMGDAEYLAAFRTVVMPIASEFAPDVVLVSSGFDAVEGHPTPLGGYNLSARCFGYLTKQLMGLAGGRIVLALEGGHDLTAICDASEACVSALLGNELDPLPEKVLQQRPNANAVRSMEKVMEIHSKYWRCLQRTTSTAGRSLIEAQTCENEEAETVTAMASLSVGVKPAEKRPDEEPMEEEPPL
Chain of HDAC9 (Q9UKV0 whole entry): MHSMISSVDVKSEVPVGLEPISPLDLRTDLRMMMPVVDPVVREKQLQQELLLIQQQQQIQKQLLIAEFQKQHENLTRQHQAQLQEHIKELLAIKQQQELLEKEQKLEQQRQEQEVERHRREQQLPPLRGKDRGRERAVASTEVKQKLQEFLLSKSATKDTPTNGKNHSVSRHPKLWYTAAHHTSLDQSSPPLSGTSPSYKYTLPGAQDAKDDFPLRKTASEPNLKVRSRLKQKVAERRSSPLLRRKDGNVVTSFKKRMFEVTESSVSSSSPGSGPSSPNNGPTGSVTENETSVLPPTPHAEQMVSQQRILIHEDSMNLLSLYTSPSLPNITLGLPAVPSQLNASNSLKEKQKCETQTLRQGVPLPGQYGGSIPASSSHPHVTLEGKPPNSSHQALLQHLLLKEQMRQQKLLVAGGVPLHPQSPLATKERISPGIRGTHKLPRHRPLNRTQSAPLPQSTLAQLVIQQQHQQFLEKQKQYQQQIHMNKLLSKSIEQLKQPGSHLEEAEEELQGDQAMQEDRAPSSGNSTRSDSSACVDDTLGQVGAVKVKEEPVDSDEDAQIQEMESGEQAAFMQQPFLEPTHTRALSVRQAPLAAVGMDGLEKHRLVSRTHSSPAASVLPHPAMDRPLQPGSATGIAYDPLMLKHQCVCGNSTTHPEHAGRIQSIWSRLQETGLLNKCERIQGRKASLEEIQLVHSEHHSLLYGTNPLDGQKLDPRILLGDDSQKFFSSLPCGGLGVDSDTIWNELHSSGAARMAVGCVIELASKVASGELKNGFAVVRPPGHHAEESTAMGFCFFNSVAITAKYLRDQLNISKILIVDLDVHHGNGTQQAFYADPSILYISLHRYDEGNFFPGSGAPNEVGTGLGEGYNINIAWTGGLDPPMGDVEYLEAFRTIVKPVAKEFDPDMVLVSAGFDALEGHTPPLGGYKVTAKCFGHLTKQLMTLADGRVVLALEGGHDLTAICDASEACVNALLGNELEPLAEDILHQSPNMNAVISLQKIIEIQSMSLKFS
Chain of HDAC8 (Q9BY41 whole entry): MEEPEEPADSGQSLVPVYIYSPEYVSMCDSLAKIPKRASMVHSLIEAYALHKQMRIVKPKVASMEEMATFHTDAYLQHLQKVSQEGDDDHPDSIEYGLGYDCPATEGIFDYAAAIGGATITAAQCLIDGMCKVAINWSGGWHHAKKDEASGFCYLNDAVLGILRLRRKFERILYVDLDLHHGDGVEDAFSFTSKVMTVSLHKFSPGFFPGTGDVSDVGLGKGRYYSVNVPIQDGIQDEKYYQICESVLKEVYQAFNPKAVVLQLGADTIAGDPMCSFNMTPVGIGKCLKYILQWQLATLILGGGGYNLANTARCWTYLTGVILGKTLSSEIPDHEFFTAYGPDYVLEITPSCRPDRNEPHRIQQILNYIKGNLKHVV
Chain of HDAC10 (Q969S8 whole entry): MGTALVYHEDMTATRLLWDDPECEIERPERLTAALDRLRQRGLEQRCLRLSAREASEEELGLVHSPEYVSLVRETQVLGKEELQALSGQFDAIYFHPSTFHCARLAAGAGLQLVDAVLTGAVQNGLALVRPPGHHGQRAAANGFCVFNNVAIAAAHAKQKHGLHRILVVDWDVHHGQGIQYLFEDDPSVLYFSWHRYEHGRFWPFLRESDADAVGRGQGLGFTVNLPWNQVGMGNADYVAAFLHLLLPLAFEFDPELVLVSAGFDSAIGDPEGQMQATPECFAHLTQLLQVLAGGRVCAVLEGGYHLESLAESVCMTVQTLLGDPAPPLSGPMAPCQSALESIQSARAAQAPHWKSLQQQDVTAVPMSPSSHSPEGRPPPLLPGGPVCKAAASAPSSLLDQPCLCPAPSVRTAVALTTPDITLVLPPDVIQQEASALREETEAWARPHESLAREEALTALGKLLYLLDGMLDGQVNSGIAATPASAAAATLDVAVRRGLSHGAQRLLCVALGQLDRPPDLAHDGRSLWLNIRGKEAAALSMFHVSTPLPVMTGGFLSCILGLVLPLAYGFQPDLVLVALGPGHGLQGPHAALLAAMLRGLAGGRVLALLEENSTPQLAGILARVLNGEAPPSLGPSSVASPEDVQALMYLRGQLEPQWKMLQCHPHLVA
Chain of recombinant human HDAC6 (Q9UBN7 whole entry): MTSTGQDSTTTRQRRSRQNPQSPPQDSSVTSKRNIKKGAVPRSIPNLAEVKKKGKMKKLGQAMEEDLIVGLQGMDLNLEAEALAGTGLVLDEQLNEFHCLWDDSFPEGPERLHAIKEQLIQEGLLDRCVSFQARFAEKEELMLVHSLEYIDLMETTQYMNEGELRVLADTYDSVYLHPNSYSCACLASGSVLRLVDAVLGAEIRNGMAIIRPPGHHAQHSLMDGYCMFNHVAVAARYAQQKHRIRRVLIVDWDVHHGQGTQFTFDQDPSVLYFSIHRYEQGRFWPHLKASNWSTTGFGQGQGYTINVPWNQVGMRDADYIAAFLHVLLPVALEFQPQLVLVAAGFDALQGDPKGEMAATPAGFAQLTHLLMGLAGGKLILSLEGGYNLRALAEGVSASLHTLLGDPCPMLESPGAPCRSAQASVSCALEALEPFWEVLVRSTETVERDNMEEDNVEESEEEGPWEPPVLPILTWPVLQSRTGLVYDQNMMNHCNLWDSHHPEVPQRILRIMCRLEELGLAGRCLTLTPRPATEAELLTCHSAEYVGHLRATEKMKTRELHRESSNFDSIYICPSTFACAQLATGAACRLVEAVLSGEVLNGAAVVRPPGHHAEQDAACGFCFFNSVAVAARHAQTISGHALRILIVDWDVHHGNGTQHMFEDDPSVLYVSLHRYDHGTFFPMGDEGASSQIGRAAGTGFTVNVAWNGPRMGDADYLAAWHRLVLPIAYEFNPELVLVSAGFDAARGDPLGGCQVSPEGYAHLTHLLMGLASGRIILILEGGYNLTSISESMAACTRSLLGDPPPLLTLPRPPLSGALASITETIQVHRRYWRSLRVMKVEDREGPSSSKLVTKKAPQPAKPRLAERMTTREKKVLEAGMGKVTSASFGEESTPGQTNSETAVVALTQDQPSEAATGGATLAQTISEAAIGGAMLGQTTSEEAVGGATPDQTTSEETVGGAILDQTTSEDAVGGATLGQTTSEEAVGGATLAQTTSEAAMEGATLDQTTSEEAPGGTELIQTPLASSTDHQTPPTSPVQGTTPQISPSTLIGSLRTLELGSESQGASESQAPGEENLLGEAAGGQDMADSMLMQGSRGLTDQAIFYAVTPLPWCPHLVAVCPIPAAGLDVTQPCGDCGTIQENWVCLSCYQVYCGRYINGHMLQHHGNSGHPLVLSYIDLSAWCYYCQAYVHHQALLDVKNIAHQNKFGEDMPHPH

Consider `Nc1nc2cc(-c3cn(Cc4ccc(-c5nnc(C(F)F)o5)cn4)nn3)ccc2s1` [Compd. 3, 5-(1-((5-(5-(difluoromethyl)-1,3,4-oxadiazol-2-yl)pyridin-2-yl)methyl)-1H-1,2,3-triazol-4-yl)benzo[d]thiazol-2-amine], for which the IC50 at recombinant human HDAC6 is 0.01 µM; at recombinant human HDAC1, more than 200 µM; at HDAC2, more than 30 µM; against HDAC3 it was more than 30 µM; at HDAC4, more than 30 µM; against HDAC5 it was more than 30 µM. The IC50 on HDAC7 is more than 30 µM; against HDAC8 it was more than 200 µM; against HDAC9, 22.5 µM; against HDAC10 it was more than 30 µM; against HDAC11 it was more than 30 µM. Further, the fold induction at 1 µM in [1] is 13. Besides, the “residual percentage in RAT PLASMA” value in “Stability in rat plasma” is given as 80%. Also, the “residual percentage in HUMAN PLASMA” value in series [2] turned out to be 70%. In addition, the “residual percentage in RAT S9 FRACTION” value in [3] was found to be 90%. Besides, in series [4], the “residual percentage in HUMAN S9 FRACTION” value turned out to be 97%.

`Nc1ccc(-c2cn(Cc3ccc(-c4nnc(C(F)F)o4)cn3)nn2)cn1` [compound 5, 5-(1-((5-(5-(difluoromethyl)-1,3,4-oxadiazol-2-yl)pyridin-2-yl)methyl)-1H-1,2,3-triazol-4-yl)pyridin-2-amine]: the IC50 on recombinant human HDAC6 is 0.012 µM; at recombinant human HDAC1, more than 200 µM; against HDAC2, more than 30 µM; on HDAC3, more than 30 µM; at HDAC4 it was more than 30 µM; against HDAC5, more than 30 µM. The IC50 against HDAC7 was more than 30 µM; against HDAC8, more than 200 µM; against HDAC9, more than 30 µM; at HDAC10, more than 30 µM; against HDAC11 it was more than 30 µM. In addition, the fold induction at 1 µM in series [1] was 19. In addition, the “residual percentage in RAT PLASMA” value in the series “Stability in rat plasma” was 70%. For the same compound, the “residual percentage in HUMAN PLASMA” value in series [2] amounted to 74%. The “residual percentage in RAT S9 FRACTION” value in series [3] was found to be 93%. Besides, the “residual percentage in HUMAN S9 FRACTION” value in series [4] was determined as 92%.

For `Cn1c(N)nc2cc(-c3cn(Cc4ccc(-c5nnc(C(F)F)o5)cn4)nn3)ccc21` [Compd. 17, 5-(1-((5-(5-(difluoromethyl)-1,3,4-oxadiazol-2-yl)pyridin-2-yl)methyl)-1H-1,2,3-triazol-4-yl)-1-methyl-1H-benzo[d]imidazol-2-amine], the IC50 at recombinant human HDAC6 is 0.008 µM; on recombinant human HDAC1 it was more than 200 µM; against HDAC2, more than 30 µM; against HDAC3, more than 30 µM; against HDAC4, more than 30 µM; against HDAC5, more than 30 µM. The IC50 at HDAC7 is more than 30 µM; against HDAC8, more than 200 µM; on HDAC9 it was more than 30 µM; at HDAC10, more than 30 µM; against HDAC11, more than 30 µM. The fold induction at 1 µM in [1] worked out at 32. Also, in “Stability in rat plasma”, the “residual percentage in RAT PLASMA” value was 85%. Further, the “residual percentage in HUMAN PLASMA” value in [2] was found to be 82%. Besides, in series [3], the “residual percentage in RAT S9 FRACTION” value stood at 99%. Besides, the “residual percentage in HUMAN S9 FRACTION” value in series [4] worked out at 84%.

As to `Nc1nc2cc(-c3nnn(Cc4ccc(-c5nnc(C(F)F)o5)cn4)n3)ccc2o1` [compound 7, 5-(2-((5-(5-(difluoromethyl)-1,3,4-oxadiazol-2-yl)pyridin-2-yl)methyl)-2H-tetrazol-5-yl)benzo[d]oxazol-2-amine], the 50% inhibitory concentration (IC50) is 0.013 µM on recombinant human HDAC6; more than 200 µM on recombinant human HDAC1; more than 30 µM on HDAC2; more than 30 µM against HDAC3; more than 30 µM on HDAC4; more than 30 µM at HDAC5. The IC50 against HDAC7 is more than 30 µM; against HDAC8, more than 200 µM; against HDAC9 it was more than 30 µM; against HDAC10 it was more than 30 µM; on HDAC11, more than 30 µM. Further, in [1], the fold induction at 1 µM came out at 16. The “residual percentage in RAT PLASMA” value in the series “Stability in rat plasma” turned out to be 81%. Moreover, the “residual percentage in HUMAN PLASMA” value in [2] is reported as 76%. For the same compound, the “residual percentage in RAT S9 FRACTION” value in series [3] was 96%. In series [4], the “residual percentage in HUMAN S9 FRACTION” value stood at 92%.

Regarding `O=C1NCc2ccc(-c3nnn(Cc4ccc(-c5nnc(C(F)F)o5)cn4)n3)cc21` [compound 4, 6-(2-((5-(5-(difluoromethyl)-1,3,4-oxadiazol-2-yl)pyridin-2-yl)methyl)-2H-tetrazol-5-yl)isoindolin-1-one], the IC50 at recombinant human HDAC6 is 0.012 µM; at recombinant human HDAC1, more than 200 µM; against HDAC2 it was more than 30 µM; against HDAC3 it was more than 30 µM; against HDAC4 it was more than 30 µM; on HDAC5, more than 30 µM. For the same compound, the IC50 on HDAC7 was more than 30 µM; on HDAC8, more than 200 µM; at HDAC9, more than 30 µM; against HDAC10, more than 30 µM; at HDAC11, more than 30 µM. Besides, the fold induction at 1 µM in series [1] was 13. The “residual percentage in RAT PLASMA” value in “Stability in rat plasma” stood at 78%. The “residual percentage in HUMAN PLASMA” value in series [2] came out at 80%. Further, in series [3], the “residual percentage in RAT S9 FRACTION” value was 77%. Moreover, the “residual percentage in HUMAN S9 FRACTION” value in [4] is 77%.

As for `FC(F)c1nnc(-c2ccc(Cn3cc(-c4ccc5nc(Cl)[nH]c5c4)nn3)nc2)o1` [Compd. 9, 2-(6-((4-(2-chloro-1H-benzo[d]imidazol-6-yl)-1H-1,2,3-triazol-1-yl)methyl)pyridin-3-yl)-5-(difluoromethyl)-1,3,4-oxadiazole], the IC50 on recombinant human HDAC6 was 0.015 µM; at recombinant human HDAC1, more than 200 µM; against HDAC2, more than 30 µM; at HDAC3, more than 30 µM; at HDAC4, 5.01 µM; on HDAC5 it was 1.51 µM. Further, the IC50 was 3.08 µM against HDAC7; 1.41 µM against HDAC8; 0.971 µM against HDAC9; more than 30 µM on HDAC10; more than 30 µM at HDAC11. For the same compound, the fold induction at 1 µM in [1] came out at 17. In addition, the “residual percentage in RAT PLASMA” value in “Stability in rat plasma” turned out to be 87%. Further, in series [2], the “residual percentage in HUMAN PLASMA” value is 59%. The “residual percentage in RAT S9 FRACTION” value in [3] was determined as 90%. The “residual percentage in HUMAN S9 FRACTION” value in series [4] was found to be 83%.

`FC(F)c1nnc(-c2ccc(Cn3cnc(-c4ccc(NC5=NCCN5)cc4)c3)nc2)o1` [compound 20, N-(4-(1-((5-(5-(difluoromethyl)-1,3,4-oxadiazol-2-yl)pyridin-2-yl)methyl)-1H-imidazol-4-yl)phenyl)-4,5-dihydro-1H-imidazol-2-amine]: the IC50 at recombinant human HDAC6 is 0.011 µM; at recombinant human HDAC1, more than 200 µM; on HDAC2, more than 30 µM; against HDAC3, more than 30 µM; against HDAC4 it was more than 30 µM; at HDAC5, more than 30 µM. The IC50 against HDAC7 is more than 30 µM; at HDAC8, 578 µM; on HDAC9, more than 30 µM; at HDAC10 it was more than 30 µM; at HDAC11 it was more than 30 µM. The fold induction at 1 µM in series [1] was found to be 11. Further, the “residual percentage in RAT PLASMA” value in “Stability in rat plasma” is 82%. Moreover, in series [2], the “residual percentage in HUMAN PLASMA” value was determined as 97%. In addition, in [3], the “residual percentage in RAT S9 FRACTION” value came to 93%. Besides, the “residual percentage in HUMAN S9 FRACTION” value in series [4] came to 99%.
